# From patent US7834042B2, “Angiotensin II receptor antagonists” (Merck Sharp & Dohme Corp., priority 2006, dated 2010)
# Assay: Reactive nitrogen species (RNS) after oral dosing of fasted rats, diaminonapthalene derivitization (DAN) assay
# Assay type: in vivo, Sprague-Dawley (SD) rats
# Conditions: fasted SD rats, 40 mpk PO
# Experimental: The dinitrate compounds of the invention provide enhanced NO release over mononitrate analogs. While mononitrate compounds orally dosed to rats result in reactive nitrite species circulating in plasma with maximal concentration in the 0.5-2.8 μM range, similar dosing of compounds of the present invention result in an unexpectedly large increase in circulating nitrite concentrations. A consideration of stoichiometry leads to an expectation of a doubling of nitrite levels. Compounds of the invention, however, provide a nitrite level increase more than two fold.
# Biochemical evidence for the generation of NO in vivo in response to test compound administration was obtained from studies in Sprague-Dawley (SD) rats. Administration of test compound to fasted SD rats (40 mpk, PO) results in the appearance of reactive nitrogen species (RNS), assessed using the diaminonapthalene derivitization (DAN) assay. Compounds 1-2 as numbered and identified in Table 1 below were tested.
Structure (SMILES),"RNS levels (Time 0 h, in µM)","RNS levels (Time 1 h, in µM)","RNS levels (Time 3 h, in µM)","RNS levels (Time 6 h, in µM)","RNS levels (Time 24 h, in µM)",RNS levels (result in words) (Compounds 1-2 compared),RNS levels (Time 0 h),RNS levels (Time 1 h),RNS levels (Time 3 h),RNS levels (Time 6 h)
"CCCCc1nc(Cl)c(COC(=O)CCCO[N+](=O)[O-])n1Cc1ccc(-c2ccccc2-c2nnn[nH]2)cc1 [Compound 1, reference compound]",0.7 ± 0.12,1.1 ± 0.22,1.1 ± 0.26,1.1 ± 0.34,1.7 ± 0.15,,,,,
CCCCc1nc(Cl)c(COC(=O)CCC[C@@H](CO[N+](=O)[O-])O[N+](=O)[O-])n1Cc1ccc(-c2ccccc2-c2nnn[nH]2)cc1 [Compound 2],,,,,0.5 ± 0.26,improved RNS levels,0.6 ± 0.11,9.8 ± 3.8,3.1 ± 2.48,2.1 ± 1.65
